Measurements as given in patent US11873303B2, “Substituted pyrazoles as type II IRAK inhibitors” (Merck Patent GmbH, priority 2018, dated 2024).

What was measured:
[1] = target: T1, IRAK1 (human purified recombinant enzyme His-TEV-IRAK1 (194-712)) (Homo sapiens, UniProt P51617); assay: IRAK1 enzymatic assay (ADP-Glo luminescence); type: biochemical; details: human recombinant IRAK1, ATP 1 μM
T1 construct: His-TEV-IRAK1 (194-712); His (N); TEV cleavage site (N)
Experimental: IRAK1 is a human purified recombinant enzyme (His-TEV-IRAK1 (194-712)). In this assay, IRAK1 hydrolysed ATP and autophosphorylated. Measurement of IRAK-1 inhibition was performed in 384-well format based on luminescence assay (ADP-Glo™ Kinase Assay from Promega). Purified human recombinant IRAK1 (0.3 μg/ml) and serial diluted compounds in DMSO (range of concentration from 10 μM to 0.5 nM) or controls (1% DMSO) were incubated for 15 minutes at RT in assay buffer containing 50 mM Hepes pH 7.0, Fatty acid-free BSA 0.1%, Dithiothreitol (DTT) 2 mM, MgCl2 10 mM, EGTA 0.5 mM, Triton X-100 0.01%. The kinase reaction was then initiated by the addition of ATP at a concentration of 1 μM. After 2 hours of incubation at RT, the reaction was stopped and the unconsumed ATP depleted by the addition of ADP-Glo™ Reagent according to supplier instructions. After 40 minutes of incubation at RT, the Kinase Detection Reagent was then added to the assay plate according to supplier instructions. After 20 minutes of incubation at RT, the luminescence signal was measured with a luminometer (PerkinElmer Envision or equivalent reader).

[2] = target: T2, IRAK4 (human purified recombinant enzyme His-TEV-IRAK4 (1-460)) (Homo sapiens, UniProt Q9NWZ3); assay: IRAK4 enzymatic assay (ADP-Glo luminescence); type: biochemical; details: human recombinant IRAK4, ATP 2 μM, STK1-biotin peptide
T2 construct: His-TEV-IRAK4 (1-460); His (N); TEV cleavage site (N)
T2 sequence (Q9NWZ3 1-460): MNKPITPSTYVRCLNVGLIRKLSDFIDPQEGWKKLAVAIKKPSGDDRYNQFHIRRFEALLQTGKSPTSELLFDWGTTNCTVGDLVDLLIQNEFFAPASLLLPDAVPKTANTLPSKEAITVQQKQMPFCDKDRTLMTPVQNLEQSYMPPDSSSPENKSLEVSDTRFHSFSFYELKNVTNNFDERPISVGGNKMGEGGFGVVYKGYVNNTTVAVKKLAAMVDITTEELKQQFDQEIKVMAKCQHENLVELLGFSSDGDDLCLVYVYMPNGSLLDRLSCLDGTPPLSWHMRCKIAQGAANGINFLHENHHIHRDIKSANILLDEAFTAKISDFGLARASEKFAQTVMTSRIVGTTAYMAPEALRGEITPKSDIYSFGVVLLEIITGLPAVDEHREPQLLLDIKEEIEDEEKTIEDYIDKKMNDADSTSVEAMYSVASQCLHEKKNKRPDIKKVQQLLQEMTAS
Experimental: IRAK4 is a human purified recombinant enzyme (His-TEV-IRAK4 (1-460)). In this assay, IRAK4 hydrolysed ATP, autophosphorylated and phosphorylated a Serine/Threonine generic peptidic substrate (STK: 61ST1BLC from CisBio International). Measurement of IRAK-4 inhibition was performed in 384-well format based on a luminescence assay (ADP-Glo™ Kinase Assay from Promega). Purified human recombinant IRAK4 (0.3 μg/ml) and serial diluted compounds in DMSO (range of concentration from 10 μM to 0.5 nM) or controls (1% DMSO) were incubated for 15 minutes at RT in assay buffer containing 50 mM Hepes pH 7.0, Fatty acid-free BSA 0.1%, Dithiothreitol (DTT) 2 mM, MgCl2 10 mM, EGTA 0.5 mM, Triton X-100 0.01%, MnCl2 5 mM. The kinase reaction was then initiated by the addition of ATP (2 μM) and the peptidic substrate STK1-biotin peptide (300 nM). After 2 hours of incubation at RT, the reaction was stopped and the unconsumed ATP depleted by the addition of ADP-Glo™ Reagent according to supplier instructions. After 40 minutes of incubation at RT, the Kinase Detection Reagent was then added to the assay plate according to supplier instructions. After 20 minutes of incubation at RT, the luminescence signal was measured with a plate-reading luminometer (PerkinElmer Envision or equivalent reader).

[3] = system: TLR7 induced IL-6 secretion in human mononuclear cells (PBMC's); assay: TLR7 induced IL-6 in human PBMC's; type: cell-based; details: TLR7 ligand 2 uM overnight, IL-6 AlphaLISA
Experimental: TLR7 Induced IL-6 in Human PBMC's
Human PBMC assay was used as one of the functional assays to monitor the activity of IRAK1 and IRAK4 small molecule inhibitors on TLR7 induced IL-6 secretion in human mononuclear cells (PBMC's). Human PBMCs were prepared from buffy coats (whole blood enriched with leukocytes and platelets) obtained from healthy volunteers used either fresh or frozen were plated in assay media (RPMI+2% P/S/L-glu+10% HI-FBS) and pre-treated with compounds in DMSO/media (range of concentrations from 25 uM to 0.4 nM) or controls (0.25% DMSO) for 30 minutes at 37° C. in assay media. Following pre-treatment with IRAK1 and IRAK4 inhibitors, PBMC's were stimulated with TLR7 specific ligand (2 uM) overnight (16-18 hrs) at 37° C. After incubation supernatant was transferred to 384 well PE AlphaPlate-384 and IL-6 was quantified using Perkin Elmer IL-6 Alpha LISA kit (AL223C). Plates were read on an Envision® plate reader with Alpha Technology®.

T1 sequence (P51617 194-712): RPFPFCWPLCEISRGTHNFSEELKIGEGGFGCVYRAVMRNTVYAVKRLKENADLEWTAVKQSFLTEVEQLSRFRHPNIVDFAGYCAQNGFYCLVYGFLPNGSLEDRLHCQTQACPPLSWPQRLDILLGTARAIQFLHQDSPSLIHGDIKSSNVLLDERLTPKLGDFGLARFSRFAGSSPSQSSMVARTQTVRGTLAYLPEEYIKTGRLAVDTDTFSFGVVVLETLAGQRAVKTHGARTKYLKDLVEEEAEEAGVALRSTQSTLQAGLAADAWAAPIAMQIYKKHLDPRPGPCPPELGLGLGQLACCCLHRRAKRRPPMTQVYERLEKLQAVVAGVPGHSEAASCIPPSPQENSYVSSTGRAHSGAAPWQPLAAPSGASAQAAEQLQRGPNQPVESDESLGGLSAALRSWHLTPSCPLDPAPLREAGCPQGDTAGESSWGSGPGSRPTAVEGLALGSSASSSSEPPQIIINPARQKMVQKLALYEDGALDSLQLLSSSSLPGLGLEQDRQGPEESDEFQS

Structure (SMILES)	IC50 [1]	IC50 [2]	IC50 [3]
CC(C)c1ccc(-n2nc(C(C)(C)C)cc2NC(=O)Nc2ccc(-c3nn(C)c4ncnc(N)c34)c(F)c2)cc1 [Example 3, 1-[4-(4-Amino-1-methyl-1H-pyrazolo[3,4-d]pyrimidin-3-yl)-3-fluoro-phenyl]-3-[5-tert-butyl-2-(4-isopropyl-phenyl)-2H-pyrazol-3-yl]-urea]	< 100 nM	100 to 1000 nM	< 100 nM
Cc1ccc(-n2nc(C(C)(C)C)cc2NC(=O)Nc2ccc(-c3nn(C)c4ncnc(N)c34)cc2F)cc1 [Example 4, 1-[4-(4-Amino-1-methyl-1H-pyrazolo[3,4-d]pyrimidin-3-yl)-2-fluoro-phenyl]-3-(5-tert-butyl-2-p-tolyl-2H-pyrazol-3-yl)-urea]	< 100 nM	< 100 nM	< 100 nM
Cc1ccc(-n2nc(C(C)(C)C)cc2NC(=O)Nc2ccc(-c3csc4ncnc(N)c34)c(F)c2)cc1 [Example 6, 1-[4-(4-Amino-thieno[2,3-d]pyrimidin-5-yl)-3-fluoro-phenyl]-3-(5-tert-butyl-2-p-tolyl-2H-pyrazol-3-yl)-urea]	< 100 nM	100 to 1000 nM	< 100 nM
Cc1ccc(-n2nc(C(C)(C)C)cc2NC(=O)Nc2ccc(-c3csc4ncnc(N)c34)cc2F)cc1 [Example 7, 1-[4-(4-Amino-thieno[2,3-d]pyrimidin-5-yl)-2-fluoro-phenyl]-3-(5-tert-butyl-2-p-tolyl-2H-pyrazol-3-yl)-urea]	< 100 nM	< 100 nM	< 100 nM
CC(C)c1ccc(-n2nc(C(C)(C)C)cc2NC(=O)Nc2ccc(-c3nn(C)c4ncnc(N)c34)cc2F)cc1 [Example 9, 1-(4-{4-amino-1-methyl-1H-pyrazolo[3,4-d]pyrimidin-3-yl}-2-fluorophenyl)-3-{3-tert-butyl-1-[4-(propan-2-yl)phenyl]-1H-pyrazol-5-yl}urea]	< 100 nM	< 100 nM	< 100 nM
Cc1ccc(-n2nc(C(C)(C)C)cc2NC(=O)Nc2ccc(-c3csc4ncnc(N)c34)cc2Cl)cc1 [Example 11, 1-[4-(4-Amino-thieno[2,3-d]pyrimidin-5-yl)-2-chloro-phenyl]-3-(5-tert-butyl-2-p-tolyl-2H-pyrazol-3-yl)-urea]	< 100 nM	1000 to 5000 nM	< 100 nM
Cc1ccc(-n2nc(C(F)(F)F)cc2NC(=O)Nc2ccc(-c3nn(C)c4ncnc(N)c34)c(F)c2)cc1 [Example 13, 1-[4-(4-Amino-1-methyl-1H-pyrazolo[3,4-d]pyrimidin-3-yl)-3-fluoro-phenyl]-3-(2-p-tolyl-5-trifluoromethyl-2H-pyrazol-3-yl)-urea]	100 to 1000 nM	> 5000 nM	100 to 1000 nM
CC(C)c1ccc(-n2nc(C(C)(C)C)cc2NC(=O)Nc2ccc(-c3nn(C)c4ccnc(N)c34)cc2)cc1 [Example 14, 1-[4-(4-Amino-1-methyl-1H-pyrazolo[4,3-c]pyridin-3-yl)-phenyl]-3-[5-tert-butyl-2-(4-isopropyl-phenyl)-2H-pyrazol-3-yl]-urea]	< 100 nM	100 to 1000 nM	< 100 nM
Cc1ccc(-n2nc(C(C)(C)C)cc2NC(=O)Nc2ccc(-c3nn(C)c4ncnc(N)c34)cc2Cl)cc1F [Example 29, 1-[4-(4-Amino-1-methyl-1H-pyrazolo[3,4-d]pyrimidin-3-yl)-2-chloro-phenyl]-3-[5-tert-butyl-2-(3-fluoro-4-methyl-phenyl)-2H-pyrazol-3-yl]-urea]	< 100 nM	100 to 1000 nM	

The next lines start with results.

IC50 [1]	IC50 [2]	Structure (SMILES)	IC50 [3]
< 100 nM	100 to 1000 nM	CC(C)c1ccc(-n2nc(C(C)(C)C)cc2NC(=O)Nc2ccc(-c3nn(C)c4ncnc(N)c34)cc2)cc1 [Example 1, 1-(4-{4-amino-1-methyl-1H-pyrazolo[3,4-d]pyrimidin-3-yl}phenyl)-3-{3-tert-butyl-1-[4-(propan-2-yl)phenyl]-1H-pyrazol-5-yl}urea]	< 100 nM
< 100 nM	< 100 nM	Cc1ccc(-n2nc(C(C)(C)C)cc2NC(=O)Nc2ccc(-c3nn(C)c4ncnc(N)c34)c(F)c2)cc1 [Example 2, 1-[4-(4-Amino-1-methyl-1H-pyrazolo[3,4-d]pyrimidin-3-yl)-3-fluoro-phenyl]-3-(5-tert-butyl-2-p-tolyl-2H-pyrazol-3-yl)-urea]	< 100 nM
< 100 nM	< 100 nM	Cc1ccc(-n2nc(C(C)(C)C)cc2NC(=O)Nc2ccc(-c3nn(C)c4ncnc(N)c34)cc2Cl)cc1 [Example 5, 1-[4-(4-Amino-1-methyl-1H-pyrazolo[3,4-d]pyrimidin-3-yl)-2-chloro-phenyl]-3-(5-tert-butyl-2-p-tolyl-2H-pyrazol-3-yl)-urea]	< 100 nM
< 100 nM	< 100 nM	Cc1ccc(-n2nc(C(C)(C)C)cc2NC(=O)Nc2ccc(-c3nn(C)c4ncnc(N)c34)c(Cl)c2)cc1 [Example 8, 1-[4-(4-Amino-1-methyl-1H-pyrazolo[3,4-d]pyrimidin-3-yl)-3-chloro-phenyl]-3-(5-tert-butyl-2-p-tolyl-2H-pyrazol-3-yl)-urea]	< 100 nM
< 100 nM	100 to 1000 nM	Cc1ccc(-n2nc(C(C)(C)C)cc2NC(=O)Nc2ccc(-c3csc4ncnc(N)c34)c(Cl)c2)cc1 [Example 10, 1-[4-(4-Amino-thieno[2,3-d]pyrimidin-5-yl)-3-chloro-phenyl]-3-(5-tert-butyl-2-p-tolyl-2H-pyrazol-3-yl)-urea]	< 100 nM
< 100 nM	100 to 1000 nM	Cc1ccc(-n2nc(C(C)(C)C)cc2NC(=O)Nc2ccc(-c3csc4ncnc(N)c34)cc2)cc1 [Example 12, 1-[4-(4-Amino-thieno[2,3-d]pyrimidin-5-yl)-phenyl]-3-(5-tert-butyl-2-p-tolyl-2H-pyrazol-3-yl)-urea]	< 100 nM
< 100 nM	< 100 nM	Cc1ccc(-n2nc(C(C)(C)C)cc2NC(=O)NC2CC=C(c3cn(C)c4ncnc(N)c34)CC2)cc1 (stereo not drawn) [Example 25, 1-[4-(4-Amino-7-methyl-7H-pyrrolo[2,3-d]pyrimidin-5-yl)-cyclohex-3-enyl]-3-(5-tert-butyl-2-p-tolyl-2H-pyrazol-3-yl)-urea]	
< 100 nM	100 to 1000 nM	Cn1nc(-c2ccc(NC(=O)Nc3cc(C(C)(C)C)nn3-c3ccc(C#N)cc3)c(Cl)c2)c2c(N)ncnc21 [Example 28, 1-(4-{4-amino-1-methyl-1H-pyrazolo[3,4-d]pyrimidin-3-yl}-2-chlorophenyl)-3-[3-tert-butyl-1-(4-cyanophenyl)-1H-pyrazol-5-yl]urea]	
